Like-named read-outs stand apart in the source and are kept apart here.
How the values were obtained:
[1] = tested on: HUVECs; experiment: High-content imaging cytotoxicity in HUVECs, 24 h; type: cell-based, human; conditions: Homo sapiens, HUVEC, 24 h, HUVECs; for viability at 0.01 µM / activity at 0.01 µM: concentration 0.01 µM; for viability at 0.01 µM / activity at 0.01 µM / viability at 0.1 µM / activity at 0.1 µM / viability at 1 µM / activity at 1 µM / viability at 10 µM / activity at 10 µM / viability at 100 µM / activity at 100 µM: 0.00 µM = 100.00; for viability at 0.1 µM / activity at 0.1 µM: concentration 0.10 µM; for viability at 1 µM / activity at 1 µM: concentration 1.00 µM; for viability at 10 µM / activity at 10 µM: concentration 10.00 µM; for viability at 100 µM / activity at 100 µM: concentration 100.00 µM; for minimal effective concentration: MAX 100.00
How it was run: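 HUVECs (passages 1–5) grown to monolayer over 3–5 d, then exposed 24 h at 37°C, 5% CO2; stained with Hoechst 33342, MitoTracker Orange and calcein AM and imaged at 10×. Readouts normalized to 0.5% DMSO vehicle, four-parameter logistic fit; POD at one-SD cutoff, 100μM assigned when no response.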

[2] = tested on: iCell cardiomyocytes (human iPSC-derived cardiomyocytes); experiment: High-content imaging of cytotoxicity and mitochondrial integrity in iPSC-CMs; type: cell-based; conditions: Homo sapiens, Cardiomyocyte; for viability at 0.01 µM / activity at 0.01 µM / viability at 0.1 µM / activity at 0.1 µM / viability at 1 µM / activity at 1 µM / viability at 10 µM / activity at 10 µM / viability at 100 µM / activity at 100 µM: 0.00 µM = 100.00; for viability at 0.1 µM / activity at 0.1 µM: 0.10 µM
How it was run: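 Human iPSC-derived cardiomyocytes were seeded on gelatin-coated 384-well plates at 5,000 cells per well and maintained for 12 d. Test chemicals were added as 10μL of 5× solutions to final concentrations of 0.01 to 100μM. Cells were stained with Hoechst 33342 and MitoTracker™ Orange, fixed in formaldehyde, and imaged by confocal high-content microscopy at 10× magnification.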

[3] = 24 hr, read-out: huvec.cyto.24hr
[4] = 24 hr, read-out: huvec.mito.24hr
[5] = 24 hr, read-out: huvec.mitoint.24hr
[6] = 24 hr, read-out: huvec.nma.24hr
[7] = 24 hrs, read-out: huvec.tc.24hrs
[8] = 1.5 h, 90min, read-out: cm.cam.90min
[9] = 1.5 h, 90min, read-out: cm.mii.90min
[10] = 1.5 h, 90min, read-out: cm.mito.90min
[11] = 1.5 h, 90min, read-out: cm.tc.90min
[12] = 24 h, 24hrs, read-out: cm.cam.24hrs
[13] = 24 h, 24hrs, read-out: cm.mii.24hrs
[14] = 24 h, 24hrs, read-out: cm.mito.24hrs
[15] = 24 h, 24hrs, read-out: cm.tc.24hrs

Clc1ccc(-c2cc(Cl)c(Cl)c(Cl)c2)cc1Cl [PCB126]
viability at 0.01 µM [1, 3]: 86.8% | activity at 0.01 µM [1, 4]: 85.6% | activity at 0.01 µM [1, 5]: 89% | activity at 0.01 µM [1, 6]: 94.2% | viability at 0.1 µM [1, 3]: 93.4% | activity at 0.1 µM [1, 4]: 92% | activity at 0.1 µM [1, 5]: 79.3% | activity at 0.1 µM [1, 6]: 93.5% | viability at 1 µM [1, 3]: 93.8% | activity at 1 µM [1, 4]: 92.5% | activity at 1 µM [1, 5]: 83.6% | activity at 1 µM [1, 6]: 95.2% | viability at 10 µM [1, 3]: 91.2% | activity at 10 µM [1, 4]: 89.7% | activity at 10 µM [1, 5]: 74.2% | activity at 10 µM [1, 6]: 93% | viability at 100 µM [1, 3]: 57.1% | activity at 100 µM [1, 4]: 55% | activity at 100 µM [1, 5]: 96.7% | activity at 100 µM [1, 6]: 84.5% | minimal effective concentration ([1]; 24 hr, read-out: huvec.cyto.24hr POD): 5.33 µM | minimal effective concentration ([1]; 24 hr, read-out: huvec.mito.24hr POD): 100 µM | minimal effective concentration ([1]; 24 hr, read-out: huvec.mitoint.24hr POD): 100 µM | minimal effective concentration ([1]; 24 hr, read-out: huvec.nma.24hr POD): 100 µM | viability at 0.01 µM [1, 7]: 86.9% | viability at 0.1 µM [1, 7]: 93.4% | viability at 1 µM [1, 7]: 93.8% | viability at 10 µM [1, 7]: 91.4% | viability at 100 µM [1, 7]: 57.3% | minimal effective concentration ([1]; 24 hrs, read-out: huvec.tc.24hrs POD): 5.33 µM | viability at 0.01 µM [2, 8]: 107% | activity at 0.01 µM [2, 9]: 97.6% | activity at 0.01 µM [2, 10]: 108% | viability at 0.01 µM [2, 11]: 107% | viability at 0.1 µM [2, 8]: 101% | activity at 0.1 µM [2, 9]: 106% | activity at 0.1 µM [2, 10]: 101% | viability at 0.1 µM [2, 11]: 101% | viability at 1 µM [2, 8]: 97.4% | activity at 1 µM [2, 9]: 111% | activity at 1 µM [2, 10]: 97.2% | viability at 1 µM [2, 11]: 97.2% | viability at 10 µM [2, 8]: 97.1% | activity at 10 µM [2, 9]: 103% | activity at 10 µM [2, 10]: 96.8% | viability at 10 µM [2, 11]: 96.8% | viability at 100 µM [2, 8]: 97.2% | activity at 100 µM [2, 9]: 111% | activity at 100 µM [2, 10]: 96.7% | viability at 100 µM [2, 11]: 96.7% | minimal effective concentration ([2]; 1.5 h, 90min, read-out: cm.cam.90min POD): 100 µM | minimal effective concentration ([2]; 1.5 h, 90min, read-out: cm.mii.90min POD): 100 µM | minimal effective concentration ([2]; 1.5 h, 90min, read-out: cm.mito.90min POD): 100 µM | minimal effective concentration ([2]; 1.5 h, 90min, read-out: cm.tc.90min POD): 100 µM | viability at 0.01 µM [2, 12]: 94.2% | activity at 0.01 µM [2, 13]: 109% | activity at 0.01 µM [2, 14]: 94% | viability at 0.01 µM [2, 15]: 93.7% | viability at 0.1 µM [2, 12]: 97.6% | activity at 0.1 µM [2, 13]: 80.7% | activity at 0.1 µM [2, 14]: 96.1% | viability at 0.1 µM [2, 15]: 98% | viability at 1 µM [2, 12]: 101% | activity at 1 µM [2, 13]: 103% | activity at 1 µM [2, 14]: 103% | viability at 1 µM [2, 15]: 101% | viability at 10 µM [2, 12]: 90.4% | activity at 10 µM [2, 13]: 74% | activity at 10 µM [2, 14]: 88.5% | viability at 10 µM [2, 15]: 90.2% | viability at 100 µM [2, 12]: 46.6% | activity at 100 µM [2, 13]: 101% | activity at 100 µM [2, 14]: 35.6% | viability at 100 µM [2, 15]: 48.4% | minimal effective concentration ([2]; 24 h, read-out: cm.cam.24hrs POD): 7.03 µM | minimal effective concentration ([2]; 24 h, read-out: cm.mii.24hrs POD): 100 µM | minimal effective concentration ([2]; 24 h, read-out: cm.mito.24hrs POD): 7.54 µM | minimal effective concentration ([2]; 24 h, read-out: cm.tc.24hrs POD): 6.48 µM

— paper PMC7377239, “Cardiovascular Effects of Polychlorinated Biphenyls and Their Major Metabolites” (Environmental Health Perspectives, 2020)
